The values that follow come from publication PMC3857490, “Discovery of a metabolic alternative to the classical mevalonate pathway” (eLife, 2013).

What is called kcat is the number of substrate molecules converted per active site and unit of time at saturation. A word on the kcat/Km: it is the turnover number divided by the Michaelis constant.

Holding throughout (experiment): pyruvate kinase-lactate dehydrogenase coupled assay
Series [1] has as its target T1, IPK from B. floridae (Branchiostoma floridae, UniProt A0A9J7KY69).
T1 construct: gene LOC118413305
T1 sequence (A0A9J7KY69 1-298): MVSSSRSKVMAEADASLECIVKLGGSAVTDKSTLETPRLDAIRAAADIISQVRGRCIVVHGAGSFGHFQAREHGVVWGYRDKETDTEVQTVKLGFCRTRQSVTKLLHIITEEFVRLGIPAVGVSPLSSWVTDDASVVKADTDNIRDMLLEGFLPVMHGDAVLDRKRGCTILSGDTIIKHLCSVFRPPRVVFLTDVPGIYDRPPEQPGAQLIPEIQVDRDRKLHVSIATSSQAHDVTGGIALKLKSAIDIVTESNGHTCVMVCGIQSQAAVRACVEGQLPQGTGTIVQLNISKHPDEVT
Type of series: biochemical. Particulars: co-substrate ATP; fit with substrate inhibition.

Another series addresses T2, IPK from T. adhaerens (Trichoplax adhaerens, UniProt B3RKZ8).
T2 construct: gene TRIADDRAFT_51825
T2 sequence (B3RKZ8 1-281): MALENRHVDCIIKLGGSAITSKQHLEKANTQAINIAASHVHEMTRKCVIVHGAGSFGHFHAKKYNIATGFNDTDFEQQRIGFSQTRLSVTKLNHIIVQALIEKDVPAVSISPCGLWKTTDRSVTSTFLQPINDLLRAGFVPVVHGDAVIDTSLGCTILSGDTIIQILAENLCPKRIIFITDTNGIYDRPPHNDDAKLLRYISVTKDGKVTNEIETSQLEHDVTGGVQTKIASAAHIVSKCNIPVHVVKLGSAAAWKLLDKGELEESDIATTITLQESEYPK
The series is classed as biochemical. Particulars: co-substrate ATP; four IP concentrations, 2-100 µM.

In another series the target is T3, IPK from A. thaliana (Arabidopsis thaliana, UniProt Q8H1F7).
T3 construct: synthetic gene, thrombin-cleavable 9-His tag (pHIS9GW), E. coli BL21(DE3)
T3 sequence (Q8H1F7 1-332): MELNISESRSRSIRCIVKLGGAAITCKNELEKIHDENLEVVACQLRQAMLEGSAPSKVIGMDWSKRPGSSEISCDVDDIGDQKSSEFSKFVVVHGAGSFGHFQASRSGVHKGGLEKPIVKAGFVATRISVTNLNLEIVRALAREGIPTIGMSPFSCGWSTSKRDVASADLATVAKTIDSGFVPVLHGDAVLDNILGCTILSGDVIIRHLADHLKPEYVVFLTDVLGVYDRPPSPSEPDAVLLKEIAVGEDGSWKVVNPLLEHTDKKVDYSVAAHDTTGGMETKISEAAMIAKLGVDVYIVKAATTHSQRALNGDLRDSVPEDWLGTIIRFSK
Type of series: biochemical. To be noted: co-substrate ATP; Ki from the fit of the substrate's own saturation curve (substrate inhibition); four IP concentrations, 2-100 µM.

Series [2] has as its target T1, IPK from B. floridae. Type of series: biochemical. Particulars: co-substrate ATP; Ki from the fit of the substrate's own saturation curve (substrate inhibition). The text has this:
pyruvate kinase-lactate dehydrogenase coupled assay on IPK from B. floridae

The target in a further series is T4, PMK from S. solfataricus (Saccharolobus solfataricus, UniProt Q97UL6).
T4 construct: gene SSO2988; full length, N-terminal thrombin-cleavable 8-His tag (pET28a), E. coli BL21(DE3)
T4 sequence (Q97UL6 1-323): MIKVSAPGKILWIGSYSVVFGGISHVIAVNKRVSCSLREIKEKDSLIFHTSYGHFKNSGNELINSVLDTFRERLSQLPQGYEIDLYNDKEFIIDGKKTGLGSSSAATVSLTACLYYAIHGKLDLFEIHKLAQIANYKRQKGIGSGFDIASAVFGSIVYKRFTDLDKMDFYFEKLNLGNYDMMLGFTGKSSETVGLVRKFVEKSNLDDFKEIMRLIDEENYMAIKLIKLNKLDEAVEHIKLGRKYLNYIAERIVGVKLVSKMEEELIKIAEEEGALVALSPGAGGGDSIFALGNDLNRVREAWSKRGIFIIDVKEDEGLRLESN
Type of series: biochemical. Particulars: co-substrate ATP; Ki from the fit of the substrate's own saturation curve (substrate inhibition); racemic (RS)-MVAP. The text has this:
(§1) pyruvate kinase-lactate dehydrogenase coupled assay on PMK from S. solfataricus

The target of another series is T5, MDD from A. thaliana (Arabidopsis thaliana, UniProt O23722).
T5 construct: gene MVD1; synthetic gene, thrombin-cleavable 9-His tag (pHIS9GW), E. coli BL21(DE3)
T5 sequence (O23722 1-412): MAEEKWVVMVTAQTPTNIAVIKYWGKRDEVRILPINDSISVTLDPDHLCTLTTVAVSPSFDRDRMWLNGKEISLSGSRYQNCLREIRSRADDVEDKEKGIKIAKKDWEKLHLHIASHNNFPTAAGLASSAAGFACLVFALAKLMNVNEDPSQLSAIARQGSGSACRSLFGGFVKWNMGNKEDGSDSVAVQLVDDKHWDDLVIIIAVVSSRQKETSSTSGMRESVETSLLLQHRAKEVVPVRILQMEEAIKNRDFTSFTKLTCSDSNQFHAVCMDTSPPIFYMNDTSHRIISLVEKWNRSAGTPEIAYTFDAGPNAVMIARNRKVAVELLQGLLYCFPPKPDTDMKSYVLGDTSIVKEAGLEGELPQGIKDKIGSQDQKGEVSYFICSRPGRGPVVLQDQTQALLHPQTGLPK
Type of series: biochemical. To be noted: co-substrate ATP; racemic (RS)-MVAPP. The text has this:
pyruvate kinase-lactate dehydrogenase coupled assay on MDD from A. thaliana

Substrate in series [3]: CC(O)(CCOP(=O)(O)O)CC(=O)O
Type of series: biochemical, Roseiflexus castenholzii. Particulars: co-substrate ATP, racemic (RS)-MVAP, below the organism's growth temperature (50 C and above). The text has this:
pyruvate kinase-lactate dehydrogenase coupled assay on MPD from R. castenholzii (annotated MDD)

Substrate in series [4]: CC(O)(CCOP(=O)(O)O)CC(=O)O
The series is classed as biochemical, Saccharolobus solfataricus. To be noted: co-substrate ATP; racemic (RS)-MVAP; fit with substrate inhibition.
Text: as §1

In the case of `C=C(C)CCOP(=O)(O)O` [compound 4, isopentenyl phosphate], the figures for the Km at IPK from B. floridae [1] and on IPK from T. adhaerens were 13.3 µM and 3.1 µM, respectively. Also, the “Ki (μM)” value is reported as 522 (± 381) μM on IPK from A. thaliana and 2820 (± 1700) μM on IPK from B. floridae [2].

For the molecule `CC(O)(CCOP(=O)(O)O)CC(=O)O` (racemic) [compound 3, phosphomevalonate], the “Ki (μM)” value on PMK from S. solfataricus was 5500 (± 2200) μM.

Turning to `CC(O)(CCOP(=O)(O)OP(=O)(O)O)CC(=O)O` (racemic) [compound 5, diphosphomevalonate], at MDD from A. thaliana, the Km came out at 15.7 µM.

B1: MPD from R. castenholzii (annotated MDD) (Roseiflexus castenholzii DSM 13941) (protein)
chain: MYHRPLERMPGLATAIPAPYADLVERMATADADLRAALRAHGLTWEEYPDLTGAARERGAAAALAYPMQGVLKYHGLSDWDYRIAFLPSVSLCNDAGHTLTLVEFDPDLATDCATINGHVARGRELERVRQSLDAIRAASGATVRARVMSRNVTRGTRMGKGLGSSAAASAALALAAIAALYGDEAAANRRLVSCMARLLAGSGCRSAAGGCSIWFSSPGMPHEDSFAVRLDDAGQLDDVRLITVPLDSRIGLKTEQAHLDAPGSALFRCWMLSRRDEALACIAAARTGDWRTLGQWAELDSMRLHGITMSGSLENKLIGWEPENIVLFRMCNDLRSSGVPVYCSTDTGPTAVFITHRDYEDAVVSAIEGLGLSLEAIRGRVAGPARLVDIAWAGGELGVAD
notes: synthetic gene, 9-His tag removed with thrombin, E. coli BL21(DE3), Mono Q and Superdex 200
With B1, in series [3], the Km is listed as 152 (± 38) μM, the turnover number (kcat) is 1.7 ± 0.1 s⁻¹ and the kcat/Km came to 11000 ± 3000 M⁻¹ s⁻¹.

B2: PMK from S. solfataricus (Saccharolobus solfataricus P2) (protein)
chain: MIKVSAPGKILWIGSYSVVFGGISHVIAVNKRVSCSLREIKEKDSLIFHTSYGHFKNSGNELINSVLDTFRERLSQLPQGYEIDLYNDKEFIIDGKKTGLGSSSAATVSLTACLYYAIHGKLDLFEIHKLAQIANYKRQKGIGSGFDIASAVFGSIVYKRFTDLDKMDFYFEKLNLGNYDMMLGFTGKSSETVGLVRKFVEKSNLDDFKEIMRLIDEENYMAIKLIKLNKLDEAVEHIKLGRKYLNYIAERIVGVKLVSKMEEELIKIAEEEGALVALSPGAGGGDSIFALGNDLNRVREAWSKRGIFIIDVKEDEGLRLESN
notes: full length, N-terminal thrombin-cleavable 8-His tag (pET28a), E. coli BL21(DE3)
As to B2, in series [4], the Km is given as 23.1 (± 3.8) μM, the turnover number (kcat) was found to be 1.98 ± 0.1 s⁻¹ and the kcat/Km came out at 90000 ± 10000 M⁻¹ s⁻¹.
